The values that follow are results of earlier work, collected in patent US10544066B2, “Microencapsulated nitrification inhibitor compositions” (DOW AGROSCIENCES LLC, priority 2014, dated 2020).

Each structure is given as a SMILES string.

For the series the following is noted: at 23° Celsius.

Consider `Clc1cccc(C(Cl)(Cl)Cl)n1` [nitrapyrin, 2-chloro-6-(trichloromethyl)pyridine], for which the vapor pressure is 2.8×10^−3 mm Hg.
